Columns and labels:
[1] = tested on: murine adenocarcinoma CaNT tumour; test: CaNT tumour model, ZD6126 and cisplatin, second study (tumour growth delay); type: in vivo; conditions: study 2, female CBA mice; ZD6126 100 + 100 mg/kg i.p. 2 h apart on days 0, 4, 7, 11; cisplatin 5 mg/kg i.p. days 0 and 7
Procedure: ZD6126 alone was dosed on days 0, 4, 7 and 11 using a split dose regimen of ZD6126 100 mg/kg i.p., followed by a 2 hour interval, followed by a further 100 mg/kg ZD6126 i.p.. Cisplatin alone was dosed at 5 mg/kg i.p on day 0 and day 7.
(§1) The combination treatment consisted of: • Days 0 and 7: ZD6126 100 mg/kg i.p., followed by a 2 hour interval, followed by a further 100 mg/kg ZD6126 i.p.; cisplatin given 10 minutes before first ZD6126 dose. • Days 3, 7 and 10: ZD6126 100 mg/kg i.p., followed by a 2 hour interval, followed by a further 100 mg/kg ZD6126 i.p..

[2] = tested on: human Calu 6 tumour cells; test: Calu 6 tumour model, ZD6126 and cisplatin (tumour growth delay); type: in vivo; conditions: athymic nude mice; ZD6126 100 mg/kg i.p. daily x5 (days 0-4 alone, days 1-5 in combination); cisplatin 4 mg/kg i.p. day 0
Procedure: In a second tumour model, Calu 6, the advantage of combining ZD6126 and cisplatin (cis-Platinum(lI)Diammine Dichloride—Sigma P-4394) was confirmed. Athymic nude mice were implanted subcutaneously with 1×10^6 human Calu 6 tumour cells (obtained from American Type Culture Collection, 10801 University Boulevard, Manassas, Va. 20110-2209 Cat. no. HTB-56) and tumours allowed to grow until they were approximately 9 mm in diameter.
Groups of 10 tumour bearing mice were then treated as follows: • ZD6126 alone was dosed 100 mg/kg i.p. on days 0, 1, 2, 3, 4. • Cisplatin alone was dosed 4 mg/kg i.p. on day 0.
In the combination arm cisplatin 4 mg/kg i.p. was dosed on day 0, and ZD6126 100 mg/kg i.p. was dosed on days 1, 2, 3, 4 and 5.

murine KHT sarcoma [3] = test: KHT sarcoma tumour model, cisplatin plus ZD6126 (tumour cell survival, excision and colony formation); type: in vivo, mice; conditions: 10 mg/kg cisplatin i.p. alone, assessed 24 hours later
Procedure: In the murine KHT sarcoma model (Lingyun Li, B. S. et al, Int. J. Radiation Oncology Biol. Phys 42, 899-903, 1998) tumours were treated with either 10 mg/kg cisplatin i.p. alone or 10 mg/kg cisplatin plus ZD6126 (10-100 mg/kg i.p.), cisplatin given 1 hour prior to ZD6126. The effects of the treatments on tumour cell survival was assessed 24 hours later by excising the tumour, disaggregating the cells and determining the number of colonies formed after 10-14 days. Surviving fraction compared to untreated cells was then determined.

[4] = tested on: murine adenocarcinoma CaNT tumour; test: CaNT tumour model, ZD6126 and cisplatin, first study (tumour growth delay); type: in vivo; conditions: study 1, female CBA mice; ZD6126 100 + 100 mg/kg i.p. 2 h apart on days 0, 2, 4; cisplatin 5 mg/kg i.p. day 0
Procedure: ZD6126 alone was dosed on days 0, 2 and 4 using a split dose regimen of 100 mg/kg ZD6126, followed by a 2 hour interval, followed by a further 100 mg/kg ZD6126; doses were given intraperitoneally (i.p.).
Cisplatin (David Bull Laboratories) alone was dosed at 5 mg/kg i.p on day 0.
as §1, with “Day 0:” for “Days 0 and 7:”, “i.p; and” for “i.p.;”, “cisplatin 5 mg/kg” for “cisplatin”, “2” for “3, 7”, “4:” for “10:”, “i.p.” for “i.p..”

murine KHT sarcoma [5] = test: KHT sarcoma tumour model, ZD6126 and radiation (tumour cell survival, excision and colony formation); type: in vivo, mice
Procedure: The murine KHT sarcoma grown in C3H mice was also used to confirm the advantage of combining ZD6126 and radiation. Tumours were treated with either radiation alone (0, 5, 10, 15 or 20 Gy single dose), ZD6126 100 mg/kg i.p., or radiation followed 1 hour later by ZD6126 100 mg/kg i.p.. The effects of either radiation alone, ZD6126 alone or the combination on tumour cell survival was assessed 24 hours later by excising the tumour, disaggregating the cells and determining the number of colonies formed after 10-14 days. Surviving fraction compared to untreated cells was then determined.

[6] = tested on: murine adenocarcinoma CaNT tumour; test: Cell survival assay, CaNT tumour model: effect of dosage interval; type: in vivo, mice; conditions: two doses of 100 mg/kg i.p. separated by 2, 3 or 4 hours; tumours excised about 18 hours after treatment
Procedure: (§2) In vivo cell survival was measured using an excision assay (D J Chaplin et al., Anticancer Research 19: 189-196 (1999)).
(§3) Tumours were excised at about 18 hours after treatment, weighed and disaggregated for 1 hour at 37 degrees Celsius in an enzyme cocktail containing 1 mg/ml pronase, 0.5 mg/ml DNAase and 0.5 mg/ml collagenase. Haemocytometer counts of trypan blue-excluding cells were made and viable cells seeded in appropriate concentrations to yield about 50 colonies/dish after in vitro incubation. Heavily irradiated feeder cells (V79 cells) were used at a concentration of 25,000/ml to support the growth of the surviving CaNT cells. The data were calculated as surviving fraction per gram of tumour.
(§4) ZD6126 was administered as a single dose of […] intra-peritoneally (i.p.) in saline with a small amount of 1% sodium carbonate added to aid the dissolution of ZD6126.
ZD6126 was dosed using a split dose regimen of 100 mg/kg ZD6126, followed by a time interval, followed by a further 100 mg/kg ZD6126; doses were given intraperitoneally (i.p.) in saline with a small amount of 1% sodium carbonate added to aid the dissolution of ZD6126. The time intervals used were 1, 2, 3, 4 and 6 hours.

[7] = tested on: murine adenocarcinoma CaNT tumour; test: Cell survival assay, CaNT tumour model: effect of dosage interval and split dose proportions; type: in vivo, mice
Procedure: as §2, §3
This improved effect varied with the proportion of total dose given in the first and second doses.
as §4
ZD6126 was dosed using split dose regimens of: • i) 25 mg/kg ZD6126, followed by a 2 hour interval, followed by a further 175 mg/kg ZD6126; • ii) 50 mg/kg ZD6126, followed by a 2 hour interval, followed by a further 150 mg/kg ZD6126; • iii) 100 mg/kg ZD6126, followed by a 2 hour interval, followed by a further 100 mg/kg ZD6126; • iv) 150 mg/kg ZD6126, followed by a 2 hour interval, followed by a further 50 mg/kg ZD6126; • v) 175 mg/kg ZD6126, followed by a 2 hour interval, followed by a further 25 mg/kg ZD6126; All doses were given intraperitoneally (i.p.) in saline with a small amount of 1% sodium carbonate added to aid the dissolution of ZD6126.

SMILES	Mean growth delay (vs control) - days [1] [days]	growth delay (time to reach 2× starting volume) compared to control tumours [2] [days]	cell killing (murine KHT sarcoma [3])	Mean growth delay (vs control) - days [4] [days]	enhanced cell killing over controls (murine KHT sarcoma [5]; ZD6126 alone with no radiation) [fold]	Plus ZD6126 % cell survival (murine KHT sarcoma [5]; radiation dose 0 Gy, ZD6126 100 mg/kg i.p., C3H mice, 24 hours later) [%]	Plus ZD6126 % cell survival (murine KHT sarcoma [5]; radiation dose 5 Gy followed 1 hour later by ZD6126 100 mg/kg i.p.) [%]	Plus ZD6126 % cell survival (murine KHT sarcoma [5]; radiation dose 10 Gy followed 1 hour later by ZD6126 100 mg/kg i.p.) [%]	Plus ZD6126 % cell survival (murine KHT sarcoma [5]; radiation dose 15 Gy followed 1 hour later by ZD6126 100 mg/kg i.p.) [%]	surviving fraction of tumour cells, divided doses compared with single dose [6]	split dose proportion giving the best anti-tumour effect ([7]; regimen iii) 100 mg/kg + 100 mg/kg, 2 hour interval)	significance of the greater effect of divided doses over a single dose ([7]; regimens i) 25+175, iii) 100+100 or iv) 150+50 mg/kg, 2 hour interval)	anti-tumour effect, as measured by surviving fraction of tumour cells, divided doses compared with single dose ([7]; total 200 mg/kg i.p. in two doses 2 hours apart, regimens i) to v))
[NH2][Pt]([NH2])([Cl])[Cl] [Cisplatin, cis-Platinum(lI)Diammine Dichloride]	7.7	6.0	approximately 98%	2.1	–	–	–	–	–	–	–	–	–
COc1cc2c(c(OC)c1OC)-c1ccc(OP(=O)(O)O)cc1[C@@H](NC(C)=O)CC2 [ZD6126, (5S)-5-(acetylamino)-9,10,11-trimethoxy-6,7-dihydro-5H-dibenzo[a,c]cyclohepten-3-yl dihydrogen phosphate]	–	–	–	–	40	2.5	0.16	0.015	0.0016	significantly more effective in this model than a single 200 mg/kg dose	best effect was seen with equal split doses	significant	greater with divided doses of ZD6126 than with a single dose of 200 mg/kg ZD6126
